Tests used:
[1] = Half life in human liver microsomes at 2 uM; type: ADME
[2] = Half life in rat at 5 mg/kg, po and 2 mg/kg, iv; type: ADME, organism-based; settings: in vivo
[3] = Cmax in rat at 5 mg/kg, po and 2 mg/kg, iv; type: ADME, organism-based; settings: in vivo
[4] = Clearance in cynomolgous monkey at 5 mg/kg, po and 2 mg/kg, iv; type: ADME, organism-based, Macaca fascicularis; settings: cynomolgus monkey, in vivo
Hepatitis C virus [5] = assay: Antiviral activity against Hepatitis C virus genotype 1a infected in human Huh cells assessed as inhibition of viral replication by RT-PCR-based replicon assay; type: functional, cell-based, Hepacivirus hominis; settings: subtype 1a
[6] = Permeability from apical to basolateral side of human Caco2 cells; type: ADME, cell-based; settings: Caco-2, read-out: permeability
[7] = AUC in rat at 5 mg/kg, po and 2 mg/kg, iv; type: ADME, organism-based; settings: plasma
[8] = Half life in rat liver microsomes at 2 uM; type: ADME
[9] = Cmax in cynomolgous monkey at 5 mg/kg, po and 2 mg/kg, iv; type: ADME, organism-based, Macaca fascicularis; settings: cynomolgus monkey, in vivo
[10] = Bioavailability in dog at 5 mg/kg, po and 2 mg/kg, iv; type: ADME, organism-based, Canis lupus familiaris; settings: in vivo
[11] = AUC in cynomolgous monkey at 5 mg/kg, po and 2 mg/kg, iv; type: ADME, organism-based, Macaca fascicularis; settings: cynomolgus monkey, plasma
[12] = Lipophilicity, log D of the compound at pH 7.4; type: physicochemical; settings: buffer
[13] = Cmax in dog at 5 mg/kg, po and 2 mg/kg, iv; type: ADME, organism-based, Canis lupus familiaris; settings: in vivo
[14] = Volume of distribution at steady state in cynomolgous monkey at 5 mg/kg, po and 2 mg/kg, iv; type: ADME, organism-based, Macaca fascicularis; settings: cynomolgus monkey, in vivo, read-out: Vdss
[15] = Ratio of drug uptake in liver to plasma of rat at 5 mg/kg, po and 2 mg/kg, iv after 6 to 8 hrs; type: ADME, organism-based
[16] = Half life in dog liver microsomes at 2 uM; type: ADME, Canis lupus familiaris
[17] = target: Voltage-gated inwardly rectifying potassium channel KCNH2 (Homo sapiens, UniProt Q12809); assay: Inhibition of human ERG channel
[18] = Clearance in rat at 5 mg/kg, po and 2 mg/kg, iv; type: ADME, organism-based; settings: in vivo
[19] = Volume of distribution at steady state in rat at 5 mg/kg, po and 2 mg/kg, iv; type: ADME, organism-based; settings: in vivo, read-out: Vdss
[20] = Half life in dog at 5 mg/kg, po and 2 mg/kg, iv; type: ADME, organism-based, Canis lupus familiaris; settings: in vivo
[21] = Half life in cynomolgous monkey at 5 mg/kg, po and 2 mg/kg, iv; type: ADME, organism-based, Macaca fascicularis; settings: cynomolgus monkey, in vivo
[22] = Bioavailability in cynomolgous monkey at 5 mg/kg, po and 2 mg/kg, iv; type: ADME, organism-based, Macaca fascicularis; settings: cynomolgus monkey, in vivo
[23] = Half life in cynomolgous monkey liver microsomes at 2 uM; type: ADME, Macaca fascicularis; settings: cynomolgus monkey
[24] = Bioavailability in rat at 5 mg/kg, po and 2 mg/kg, iv; type: ADME, organism-based; settings: in vivo
Hepatitis C virus [25] = assay: Antiviral activity against Hepatitis C virus genotype 1b infected in human Huh cells assessed as inhibition of viral replication by RT-PCR-based replicon assay; type: functional, cell-based, Hepacivirus hominis
[26] = Induction of action potential duration in guinea pig papillary muscle cells at 30 uM; type: functional, Cavia porcellus
[27] = AUC in dog at 5 mg/kg, po and 2 mg/kg, iv; type: ADME, organism-based, Canis lupus familiaris; settings: plasma
[28] = Clearance in dog at 5 mg/kg, po and 2 mg/kg, iv; type: ADME, organism-based, Canis lupus familiaris; settings: in vivo
[29] = Volume of distribution at steady state in dog at 5 mg/kg, po and 2 mg/kg, iv; type: ADME, organism-based, Canis lupus familiaris; settings: in vivo, read-out: Vdss

Chain of Voltage-gated inwardly rectifying potassium channel KCNH2 (Q12809 whole entry): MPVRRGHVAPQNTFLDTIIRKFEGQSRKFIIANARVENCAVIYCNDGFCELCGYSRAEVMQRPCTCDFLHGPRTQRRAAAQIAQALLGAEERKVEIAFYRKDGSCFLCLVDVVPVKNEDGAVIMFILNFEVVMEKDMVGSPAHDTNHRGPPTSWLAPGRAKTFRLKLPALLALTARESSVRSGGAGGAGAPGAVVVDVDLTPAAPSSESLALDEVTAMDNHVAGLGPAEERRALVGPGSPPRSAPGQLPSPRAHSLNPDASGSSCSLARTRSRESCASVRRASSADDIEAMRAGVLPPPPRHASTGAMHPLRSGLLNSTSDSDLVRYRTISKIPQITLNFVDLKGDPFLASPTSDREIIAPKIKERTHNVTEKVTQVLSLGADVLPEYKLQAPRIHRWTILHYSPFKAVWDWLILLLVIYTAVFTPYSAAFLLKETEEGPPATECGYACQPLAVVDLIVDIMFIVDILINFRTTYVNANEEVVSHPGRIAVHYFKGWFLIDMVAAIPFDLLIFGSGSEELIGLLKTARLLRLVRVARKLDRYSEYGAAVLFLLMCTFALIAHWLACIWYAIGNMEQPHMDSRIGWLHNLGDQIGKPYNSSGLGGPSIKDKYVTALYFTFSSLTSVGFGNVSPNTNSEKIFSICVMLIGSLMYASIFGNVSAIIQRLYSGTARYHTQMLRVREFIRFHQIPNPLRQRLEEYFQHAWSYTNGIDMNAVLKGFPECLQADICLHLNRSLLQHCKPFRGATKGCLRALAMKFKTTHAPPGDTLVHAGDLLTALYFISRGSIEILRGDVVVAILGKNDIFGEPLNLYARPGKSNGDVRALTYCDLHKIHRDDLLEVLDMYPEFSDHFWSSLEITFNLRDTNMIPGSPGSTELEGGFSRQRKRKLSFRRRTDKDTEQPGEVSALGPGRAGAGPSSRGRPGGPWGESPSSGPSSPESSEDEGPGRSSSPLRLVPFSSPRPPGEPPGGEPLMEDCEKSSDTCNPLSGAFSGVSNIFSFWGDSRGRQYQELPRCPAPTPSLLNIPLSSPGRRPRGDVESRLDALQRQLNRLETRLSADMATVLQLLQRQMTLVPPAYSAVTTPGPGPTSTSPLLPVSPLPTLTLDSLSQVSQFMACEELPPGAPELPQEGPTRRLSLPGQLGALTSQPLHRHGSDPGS

half-life at 2 µM [1]: 1.72 h
half-life [2]: 1.7 h
Cmax [3]: 4.5 µM
clearance [4]: 4.1 mL/min/kg
EC50 (Hepatitis C virus [5]): 0.022 µM
Papp A→B [6]: 15 ×10⁻⁶ cm/s
AUC [7]: 11 µM·h
half-life at 2 µM [8]: 0.683 h
Cmax [9]: 4.4 µM
bioavailability [10]: 42%
AUC [11]: 14 µM·h
logD [12]: > 4.9
Cmax [13]: 5.9 µM
Vd [14]: 0.34 L/kg
Kp [15]: 4
half-life at 2 µM [16]: 2.2 h
clearance [18]: 4.2 mL/min/kg
Vd [19]: 0.4 L/kg
half-life [20]: 3 h
half-life [21]: 2.4 h
bioavailability [22]: 45%
half-life at 2 µM [23]: 0.217 h
bioavailability [24]: 36%
EC50 (Hepatitis C virus [25]): 0.009 µM
AUC [27]: 26 µM·h
clearance [28]: 1.9 mL/min/kg
Vd [29]: 0.34 L/kg
SMILES: CCOc1nc(NC(=O)C2(NC(=O)c3ccc4c(c3)c(C)c(-c3ccc(F)cn3)n4C3CCCCC3)CCC2)ccc1/C=C/C(=O)O
IC50 [17]: 1.4 µM
Activity [26]: 20%

Source: ChEMBL document CHEMBL3407472, “Multi-parameter optimization of aza-follow-ups to BI 207524, a thumb pocket 1 HCV NS5B polymerase inhibitor. Part 2: Impact of lipophilicity on promiscuity and in vivo toxicity” (Bioorg Med Chem Lett, 2015)
